# Laboratory results: patent US8426202B2, “Cell culture medium” (Cellca GmbH, priority 2005, dated 2013)
# Values joined by “and” are separate entries in the source; they are usually repeats but may differ in a detail not shown here. Equal entries are not always repeated. Where two headings read alike, the source gives them in different places.
# Assays:
# [1] = tested on: CHO cell line that expresses an antibody; assay: Fed-batch experiment with the substances according to the invention (Example 2, Table 2); format: cell-based, Chinese hamster
# Text: Feed took place at regular intervals.
# [2] = tested on: CHO cell line that expresses an antibody; conditions: fed-batch; substance 1 g/l; supernatant, ELISA; absolute value of the control set at 100%
# Description: A CHO cell line that expresses an antibody was used for the experiments. The product concentration (antibody concentration) in the cell supernatant was determined by ELISA.
# From selected samples, the product concentration (antibody concentration) in the supernatant was determined by ELISA (Table 3)
# [3] = tested on: CHO cell line that expresses an antibody; conditions: fed-batch, basal medium 4 mM glutamine, feed with 3 g/l Ala-Gln and 3 g/l Gly-Gln, substance 0.5-1 g/l
# Description: (§1) A CHO cell line that expresses an antibody was used for the experiments.
# The experiments were carried out either in batch mode or in fed-batch mode. When the process was carried out in fed-batch mode, the process was first started in batch mode in the above-mentioned basal medium and cells were cultivated in this manner for 1-4 days. After 1-4 days the cells were supplemented with a feed medium, i.e. the process was switched to fed-batch mode. Feed took place at regular intervals. In fed-batch experiments, a protein-free and serum-free feed medium from the company HyQ (R05.2 supplement, Cat. No.: SH30584.04, Lot No.: APF21457G) was used.
# From the stock solutions, the substances were put at the desired final concentration in culture tubes. The various culture tubes prepared in this way were finally inoculated with the antibody-producing CHO-clone at a target inoculation cell concentration (1-3×10^5/ml). For this, the corresponding amount of inoculum cells was calculated and the required amount of inoculum cell suspension was centrifuged. […] In this way the desired inoculation cell concentration was adjusted in the cell suspension being investigated. The cell suspension thus prepared was proportioned in the culture tubes, which were provided with the substances according to the invention beforehand. The culture tubes were incubated at 37° C., and 8% CO2 atmosphere, with shaking. The culture tubes were cultivated for 8-11 days in the batch mode or in the fed-batch mode. Samples for offline measurement of the variables were taken from the culture vessels at regular intervals, for example daily or on every third day. The metabolic variables and cell concentrations of the samples were measured. Cell concentration and cell vitality were measured with a CeDex instrument. The metabolic variables (glucose, lactate, glutamine and ammonium) were determined with an analyzer (BioProfile 100).
# (§2) The following final concentrations of the substances according to the invention were established in a nutrient medium after inoculation:
# The substances according to the invention were tested under fed-batch conditions. […] The feed medium used was from the company HyQ (R05.2 supplement, Cat. No.: SH30584.04, Lot No.: APF21457G). 3 g/l alanyl-glutamine (Ala-Gin) and 3 g/l glycyl-glutamine (Gly-Gln) were added to the feed medium.
# [4] = tested on: CHO cell line that expresses an antibody; assay: Batch experiment with the substances according to the invention (Example 1); format: cell-based, Chinese hamster; conditions: batch mode, substance 0.5-1 g/l, basal medium glucose 4.7 g/l, glutamine […]
# [5] = tested on: CHO cell line that expresses an antibody; conditions: fed-batch, glutamine-free basal and feed media, substance 0.5-1 g/l
# Text: as §1
# This is a serum-free, protein-free nutrient medium. It is a ready-made, sterile-filtered nutrient medium.
# After 1-4 days the cells were supplemented with a feed medium, i.e. the process was switched to fed-batch mode. Feed took place at regular intervals. In fed-batch experiments, a protein-free and serum-free feed medium from the company HyQ (R05.2 supplement, Cat. No.: SH30584.04, Lot No.: APF21457G) was used.
# All substances (chemicals) used according to the invention were obtained from the company Sigma and stock solutions were prepared from them. From the stock solutions, the substances were put at the desired final concentration in culture tubes. The various culture tubes prepared in this way were finally inoculated with the antibody-producing CHO-clone at a target inoculation cell concentration (1-3×10^5/ml). For this, the corresponding amount of inoculum cells was calculated and the required amount of inoculum cell suspension was centrifuged. […] In this way the desired inoculation cell concentration was adjusted in the cell suspension being investigated. The cell suspension thus prepared was proportioned in the culture tubes, which were provided with the substances according to the invention beforehand. The culture tubes were incubated at 37° C., and 8% CO2 atmosphere, with shaking. The culture tubes were cultivated for 8-11 days in the batch mode or in the fed-batch mode. Samples for offline measurement of the variables were taken from the culture vessels at regular intervals, for example daily or on every third day. The metabolic variables and cell concentrations of the samples were measured. Cell concentration and cell vitality were measured with a CeDex instrument. The metabolic variables (glucose, lactate, glutamine and ammonium) were determined with an analyzer (BioProfile 100).
# as §2
# The substances according to the invention were tested under fed-batch conditions. […] The feed medium used was from the company HyQ (R05.2 supplement, Cat. No.: SH30584.04, Lot No.: APF21457G). The feed medium was glutamine-free (Table 4).
compound,measurement,setting,value
O=C([O-])CCC(=O)[O-].[Na+].[Na+] [Sodium succinate],Total Cell Density TCD,"[1]; day 0, fed-batch",1.5 E5/ml
same,Viabil.,"[1]; day 0, fed-batch",91%
same,Viable Cell Density (VCD),"[1]; day 0, fed-batch",1.37 E5/ml
same,Total Cell Density TCD,"[1]; day 2, fed-batch",4.2 E5/ml and 4.4 E5/ml
same,Viabil.,"[1]; day 2, fed-batch",98%
same,Viable Cell Density (VCD),"[1]; day 2, fed-batch",4.1 E5/ml and 4.3 E5/ml
same,Total Cell Density TCD,"[1]; day 5, fed-batch",18.1 E5/ml
same,Viabil.,"[1]; day 5, fed-batch",97%
same,Viable Cell Density (VCD),"[1]; day 5, fed-batch",17.5 E5/ml
same,Total Cell Density TCD,"[1]; day 8, fed-batch",62.2 E5/ml and 64.1 E5/ml
same,Viabil.,"[1]; day 8, fed-batch",90% and 92%
same,Viable Cell Density (VCD),"[1]; day 8, fed-batch",55.7 E5/ml and 58.8 E5/ml
same,Antibody concentration,[2],127%
same,Total Cell Density TCD,[3]; day 0,1.1 E5/ml
same,Viabil.,[3]; day 0,96%
same,Viable Cell Density (VCD),[3]; day 0,1.0 E5/ml
same,Total Cell Density TCD,[3]; day 3,9.3 E5/ml
same,Viabil.,[3]; day 3,95%
same,Viable Cell Density (VCD),[3]; day 3,8.8 E5/ml
same,Total Cell Density TCD,[3]; day 5,56.7 E5/ml
same,Viabil.,[3]; day 5,96%
same,Viable Cell Density (VCD),[3]; day 5,54.3 E5/ml
same,Total Cell Density TCD,[3]; day 7,42.0 E5/ml
same,Viabil.,[3]; day 7,82%
same,Viable Cell Density (VCD),[3]; day 7,34.5 E5/ml
same,Total Cell Density TCD,[3]; day 9,35.9 E5/ml
same,Viabil.,[3]; day 9,74%
same,Viable Cell Density (VCD),[3]; day 9,26.7 E5/ml
same,Gln,[4]; day 0,1.53 mM
same,Glucose,[4]; day 0,4.69 g/L
same,Lactate,[4]; day 0,0 g/L
same,NH4,[4]; day 0,1.22 mM
same,Specific Glutamin consumption (Gln/VCD),[4]; day 0,1.49
same,Specific ammonia production (NH4/VCD),[4]; day 0,1.18
same,Specific glucose consumption (Gluc/VCD),[4]; day 0,4.55
same,Specific lactate production (Lac/VCD),[4]; day 0,0.00
same,Total Cell Density TCD,[4]; day 0,1.07 E5/ml
same,Viabil.,[4]; day 0,96%
same,Viable Cell Density (VCD),[4]; day 0,1.03 E5/ml
same,Gln,[4]; day 3,0.76 mM
same,Glucose,[4]; day 3,3.82 g/L
same,Lactate,[4]; day 3,0.86 g/L
same,NH4,[4]; day 3,1.84 mM
same,Specific Glutamin consumption (Gln/VCD),[4]; day 3,0.09
same,Specific ammonia production (NH4/VCD),[4]; day 3,0.22
same,Specific glucose consumption (Gluc/VCD),[4]; day 3,0.47
same,Specific lactate production (Lac/VCD),[4]; day 3,0.10
same,Total Cell Density TCD,[4]; day 3,8.3 E5/ml
same,Viabil.,[4]; day 3,99%
same,Viable Cell Density (VCD),[4]; day 3,8.2 E5/ml
same,Gln,[4]; day 6,0.31 mM
same,Glucose,[4]; day 6,2.4 g/L
same,Lactate,[4]; day 6,1.19 g/L
same,NH4,[4]; day 6,2.25 mM
same,Specific Glutamin consumption (Gln/VCD),[4]; day 6,0.01
same,Specific ammonia production (NH4/VCD),[4]; day 6,0.05
same,Specific glucose consumption (Gluc/VCD),[4]; day 6,0.05
same,Specific lactate production (Lac/VCD),[4]; day 6,0.02
same,Total Cell Density TCD,[4]; day 6,49.1 E5/ml
same,Viabil.,[4]; day 6,98%
same,Viable Cell Density (VCD),[4]; day 6,48.1 E5/ml
same,Gln,[4]; day 8,0.36 mM
same,Glucose,[4]; day 8,1.44 g/L
same,Lactate,[4]; day 8,1.14 g/L
same,NH4,[4]; day 8,2.33 mM
same,Specific Glutamin consumption (Gln/VCD),[4]; day 8,0.01
same,Specific ammonia production (NH4/VCD),[4]; day 8,0.09
same,Specific glucose consumption (Gluc/VCD),[4]; day 8,0.06
same,Specific lactate production (Lac/VCD),[4]; day 8,0.04
same,Total Cell Density TCD,[4]; day 8,29.8 E5/ml
same,Viabil.,[4]; day 8,86%
same,Viable Cell Density (VCD),[4]; day 8,25.6 E5/ml
same,Gln,[4]; day 11,0.52 mM
same,Glucose,[4]; day 11,0.22 g/L
same,Lactate,[4]; day 11,1.59 g/L
same,NH4,[4]; day 11,3 mM
same,Specific Glutamin consumption (Gln/VCD),[4]; day 11,0.03
same,Specific ammonia production (NH4/VCD),[4]; day 11,0.18
same,Specific glucose consumption (Gluc/VCD),[4]; day 11,0.01
same,Specific lactate production (Lac/VCD),[4]; day 11,0.10
same,Total Cell Density TCD,[4]; day 11,32.8 E5/ml
same,Viabil.,[4]; day 11,50%
same,Viable Cell Density (VCD),[4]; day 11,16.3 E5/ml
same,Sp. Gluc cons.,[5]; day 0,95
same,Sp. NH4 prod,[5]; day 0,98 % of control
same,TCD,[5]; day 0,100 % of control
same,VCD,[5]; day 0,100 % of control
same,Viabil.,[5]; day 0,94%
same,Sp. Gluc cons.,[5]; day 3,74
same,Sp. Lactate prod.,[5]; day 3,75 % of control
same,Sp. NH4 prod,[5]; day 3,72 % of control
same,TCD,[5]; day 3,124 % of control
same,VCD,[5]; day 3,132 % of control
same,Viabil.,[5]; day 3,95%
same,Sp. Gluc cons.,[5]; day 5,88
same,Sp. Lactate prod.,[5]; day 5,93 % of control
same,Sp. NH4 prod,[5]; day 5,90 % of control
same,TCD,[5]; day 5,108 % of control
same,VCD,[5]; day 5,111 % of control
same,Viabil.,[5]; day 5,95%
same,Sp. Gluc cons.,[5]; day 7,78
same,Sp. Lactate prod.,[5]; day 7,89 % of control
same,Sp. NH4 prod,[5]; day 7,85 % of control
same,TCD,[5]; day 7,118 % of control
same,VCD,[5]; day 7,117 % of control
same,Viabil.,[5]; day 7,87%
same,Sp. Gluc cons.,[5]; day 9,69
same,Sp. Lactate prod.,[5]; day 9,78 % of control
same,Sp. NH4 prod,[5]; day 9,74 % of control
same,TCD,[5]; day 9,134 % of control
same,VCD,[5]; day 9,136 % of control
same,Viabil.,[5]; day 9,94%
